“Also recorded” adds a separate entry of the source. {Cy5} = Cy5 fluorescent dye; r = 2'-OH (RNA); f = 2'-fluoro
Assays:
[1] = system: EGFRvIII overexpressing HEK293T cells; assay: FACS based fluorescent molecule uptake assay; assay type: cell-based; settings: 200 nM, 2 hours
Source text: A number of different cell types have been trialled for a FACS based fluorescent molecule uptake assay. These include stably transfected HEK293T cells overexpressing the truncated mutant EGFRvIII, which is characterised by a deletion of 267 amino acids in the extracellular domain and results in a receptor unable to bind ligand yet constitutively active. WT cells with various endogenous levels of EGFR expression have also been trialled: HELA cells (EGFR+), MCF-7 (EGFR-), MDA-MB-231 (EGFR+), and A549 (EGFR+). Seeding densities used were identical for all experiments and described below.
Cells were plated with 1x10^5 cells per well of 24 well plates. 24 hours later cells were treated with 200 nM of specified aptamer (A-1.0 or A-2.0) or nucleic acid nanoparticle in 250 µL DMEM media for 2 hours. To terminate internalisation, media was removed from cells and washed with 500 µL Dulbecco’s Phosphate Buffered Saline (D-PBS), followed by trypsinisation, neutralisation in DMEM media and transfer to labelled 1.5 mL Eppendorf tubes. […]
Geometric mean quantification of flow cytometry results after normalisation by removal of respective background fluorescence in untreated cells. Numbers above the bars are calculated fold increase in internalisation between control and EGFRvIII overexpressing HEK293T cells. […]

[2] = system: cancer cells expressing EGFR; assay: confocal microscopy of Cy5-labelled aptamer/construct uptake; assay type: cell-based; settings: live HeLa cells, 200 nM, Lysotracker and early endosome GFP stains
Experimental: Cells were imaged by confocal microscopy after treatment with 200 nM Cy5-labelled E07min aptamer (A-1.0) or 200 nM Cy5-labelled constructs (SQ1-1000-001). For aptamer uptake experiments, 1x10^4 cells were plated in each well of a µ-Slide 8 well ibiditreat chamber (IBIDI), in 300 µL DMEM containing 10% v/v FBS. For uptake experiments, 3.4x10^3 cells (HeLa, MDA-MB-231 and A549 cells) or 6.8x10^3 cells (Mcf-7) were plated in each well of a µ-Slide 18 well ibiditreat chamber (IBIDI), in 100 µL DMEM containing 10% v/v FBS. 5 hours after cells had adhered and 48 hours before imaging, media was replaced with 50 particles per cell (PPC) CellLight early endosome-GFP (Thermo Fisher Scientific) for overnight incubation at 37° C. Additionally, 200 µL DMEM aliquots containing 200 nM aptamer were added to cells at corresponding incubation time points. Subsequently, media was removed and replaced with 60 nM LysoTracker Red DND-99 (Thermo Fisher Scientific) in 100-200 µL DMEM for 1 hour at 37° C. Cells were then washed once with Hank’s Balanced Salt Solution (HBSS) (Gibco). Finally, 100-200 µL imaging media (HBSS buffered with 20 mM 4-(2- hydroxyethyl)-1-piperazineethanesulfonic acid (HEPES), adjusted to pH 7.4) was added to cells. Confocal images were captured with an EVOS microscope or a Zeiss LSM510 laser scanning microscope using 60x oil objective lens. Images were produced using ImageJ software.

## [Cy5] GGAcGGAuuuAAucGccGuAGAAAAGCAuGucAAAGccGGAAccGucc (GGACGGAUUUAAUCGCCGUAGAAAAGCAUGUCAAAGCCGGAACCGUCC; sugars from the 5' end rrrfrrrfffrrffrffrfrrrrrrrrrfrffrrrrffrrrrffrfff, 5' {Cy5}, backbone not given here) [A-1.0, 2′F U, C 5′ Cy5 E07min (SXF1) aptamer, anti-EGFR, literature-known]
[1]; control vs EGFRvIII overexpressing HEK293T cells
  EGFR targeting specificity compared to a scramble control aptamer (A-3.0): 10 fold
[1]; Cy5-labelled aptamer
  specificity of uptake (flow cytometry): more specifically uptaken than SXF2 (CL4 aptamer); also recorded: specifically uptaken by EGFR expressing cells
[2]
  intracellular localisation after internalisation: accumulate in lysosomes after internalisation

Source: patent publication US20230183746A1, “COMPOSITIONS FOR TRANSFER OF CARGO TO CELLS” (Sixfold Bioscience Ltd., priority 2019, published 2023)
